Results taken from the NIST ThermoML archive (doi:10.1021/acs.jced.8b00554).

Assay: xn = mol fraction of the nth substance listed
Conditions: Liquid, Vibrating tube method

CCCCCCCCCC [decane] + CCCO
mass density [kg/m3]
Conditions	313.15 K	323.15 K
100 kPa, x2 = 0.1391	716.51	707.51
100 kPa, x2 = 0.1907	717.9	709.03
100 kPa, x2 = 0.3001	721.57	712.69
100 kPa, x2 = 0.4326	726.91	717.73
100 kPa, x2 = 0.6863	743.48	734.39
100 kPa, x2 = 0.8711	764.1	755.13
1000 kPa, x2 = 0.1907	–	709.9
1000 kPa, x2 = 0.3001	723.23	–
1000 kPa, x2 = 0.4326	728.22	–
1000 kPa, x2 = 0.6863	–	735.11
1010 kPa, x2 = 0.1391	–	708.44
1010 kPa, x2 = 0.1907	718.96	–
1010 kPa, x2 = 0.3001	–	713.84
1010 kPa, x2 = 0.4326	–	718.54
1010 kPa, x2 = 0.6863	744.97	–
1010 kPa, x2 = 0.8711	765.33	–
1020 kPa, x2 = 0.1391	717.29	–
1020 kPa, x2 = 0.8711	–	755.79
2000 kPa, x2 = 0.1391	718.2	–
2000 kPa, x2 = 0.1907	719.85	–
2000 kPa, x2 = 0.4326	–	719.49
2000 kPa, x2 = 0.8711	766.21	–
2010 kPa, x2 = 0.1391	–	709.4
2010 kPa, x2 = 0.1907	–	710.86
2010 kPa, x2 = 0.3001	724.13	714.8
2010 kPa, x2 = 0.4326	729.1	–
2010 kPa, x2 = 0.6863	745.85	–
2020 kPa, x2 = 0.6863	–	736.08
2020 kPa, x2 = 0.8711	–	756.71
3000 kPa, x2 = 0.1391	719.08	–
3000 kPa, x2 = 0.4326	730	–
3000 kPa, x2 = 0.8711	–	757.64
3010 kPa, x2 = 0.1391	–	710.34
3010 kPa, x2 = 0.1907	720.73	711.79
3010 kPa, x2 = 0.4326	–	720.43
3010 kPa, x2 = 0.6863	746.75	737.03
3020 kPa, x2 = 0.3001	725.02	715.74
3020 kPa, x2 = 0.8711	767.09	–
4000 kPa, x2 = 0.3001	–	716.68
4010 kPa, x2 = 0.1391	719.94	–
4010 kPa, x2 = 0.1907	721.6	–
4010 kPa, x2 = 0.3001	725.89	–
4010 kPa, x2 = 0.4326	–	721.39
4010 kPa, x2 = 0.6863	747.62	737.97
4010 kPa, x2 = 0.8711	767.96	–
4020 kPa, x2 = 0.1391	–	711.27
4020 kPa, x2 = 0.1907	–	712.75
4020 kPa, x2 = 0.4326	730.9	–
4020 kPa, x2 = 0.8711	–	758.56
5000 kPa, x2 = 0.1391	–	712.19
5000 kPa, x2 = 0.3001	726.76	717.61
5000 kPa, x2 = 0.4326	–	722.33
5000 kPa, x2 = 0.8711	–	759.48
5010 kPa, x2 = 0.1391	720.8	–
5010 kPa, x2 = 0.1907	722.46	–
5020 kPa, x2 = 0.1907	–	713.66
5020 kPa, x2 = 0.4326	731.76	–
5020 kPa, x2 = 0.6863	748.51	738.91
5020 kPa, x2 = 0.8711	768.83	–
6000 kPa, x2 = 0.1391	721.67	713.11
6000 kPa, x2 = 0.4326	732.64	–
6000 kPa, x2 = 0.6863	749.38	–
6010 kPa, x2 = 0.1907	723.31	714.57
6010 kPa, x2 = 0.3001	–	718.54
6010 kPa, x2 = 0.4326	–	723.28
6010 kPa, x2 = 0.6863	–	739.85
6010 kPa, x2 = 0.8711	769.69	760.42
6020 kPa, x2 = 0.3001	727.63	–
7000 kPa, x2 = 0.1907	724.18	–
7000 kPa, x2 = 0.4326	–	724.2
7010 kPa, x2 = 0.1391	722.52	–
7010 kPa, x2 = 0.1907	–	715.47
7010 kPa, x2 = 0.3001	–	719.46
7010 kPa, x2 = 0.6863	750.25	–
7010 kPa, x2 = 0.8711	–	761.33
7020 kPa, x2 = 0.1391	–	714.02
7020 kPa, x2 = 0.3001	728.48	–
7020 kPa, x2 = 0.4326	733.49	–
7020 kPa, x2 = 0.6863	–	740.78
7020 kPa, x2 = 0.8711	770.55	–
8000 kPa, x2 = 0.1907	–	716.39
8000 kPa, x2 = 0.3001	729.32	–
8000 kPa, x2 = 0.6863	751.12	–
8010 kPa, x2 = 0.1391	723.35	714.92
8010 kPa, x2 = 0.1907	725.03	–
8010 kPa, x2 = 0.4326	734.37	725.12
8010 kPa, x2 = 0.8711	771.39	762.24
8020 kPa, x2 = 0.3001	–	720.36
8020 kPa, x2 = 0.6863	–	741.71
9000 kPa, x2 = 0.1391	–	715.8
9000 kPa, x2 = 0.1907	–	717.29
9000 kPa, x2 = 0.4326	–	726.05
9000 kPa, x2 = 0.6863	–	742.63
9000 kPa, x2 = 0.8711	–	763.15
9010 kPa, x2 = 0.1391	724.19	–
9010 kPa, x2 = 0.1907	725.85	–
9010 kPa, x2 = 0.3001	730.17	721.28
9010 kPa, x2 = 0.6863	751.97	–
9020 kPa, x2 = 0.4326	735.2	–
9020 kPa, x2 = 0.8711	772.23	–
10000 kPa, x2 = 0.1391	–	716.7
10000 kPa, x2 = 0.1907	–	718.16
10000 kPa, x2 = 0.3001	–	722.18
10000 kPa, x2 = 0.6863	752.81	–
10010 kPa, x2 = 0.1391	724.99	–
10010 kPa, x2 = 0.1907	726.66	–
10010 kPa, x2 = 0.3001	731	–
10010 kPa, x2 = 0.4326	736.06	–
10020 kPa, x2 = 0.8711	773.07	–
11000 kPa, x2 = 0.1907	727.49	–
11000 kPa, x2 = 0.3001	731.82	–
11000 kPa, x2 = 0.6863	753.64	–
11010 kPa, x2 = 0.1391	725.82	–
11010 kPa, x2 = 0.8711	773.9	–
11020 kPa, x2 = 0.4326	736.89	–
12000 kPa, x2 = 0.8711	774.72	–
12010 kPa, x2 = 0.1907	728.3	–
12010 kPa, x2 = 0.3001	732.64	–
12010 kPa, x2 = 0.4326	737.71	–
12010 kPa, x2 = 0.6863	754.47	–
12020 kPa, x2 = 0.1391	726.61	–
13000 kPa, x2 = 0.1391	727.41	–
13000 kPa, x2 = 0.1907	729.09	–
13000 kPa, x2 = 0.8711	775.51	–
13010 kPa, x2 = 0.3001	733.44	–
13010 kPa, x2 = 0.4326	738.53	–
13010 kPa, x2 = 0.6863	755.3	–
14000 kPa, x2 = 0.3001	734.23	–
14010 kPa, x2 = 0.1391	728.19	–
14010 kPa, x2 = 0.4326	739.32	–
14010 kPa, x2 = 0.6863	756.1	–
14020 kPa, x2 = 0.1907	729.89	–
14020 kPa, x2 = 0.8711	776.33	–
15000 kPa, x2 = 0.6863	756.89	–
15010 kPa, x2 = 0.1391	728.97	–
15010 kPa, x2 = 0.1907	730.66	–
15010 kPa, x2 = 0.3001	735.01	–
15010 kPa, x2 = 0.4326	740.1	–
15020 kPa, x2 = 0.8711	777.12	–
16000 kPa, x2 = 0.4326	740.87	–
16010 kPa, x2 = 0.1391	729.71	–
16010 kPa, x2 = 0.6863	757.68	–
16010 kPa, x2 = 0.8711	777.89	–
16020 kPa, x2 = 0.1907	731.41	–
16020 kPa, x2 = 0.3001	735.77	–
17000 kPa, x2 = 0.6863	758.44	–
17010 kPa, x2 = 0.1391	730.47	–
17020 kPa, x2 = 0.1907	732.18	–
17020 kPa, x2 = 0.3001	736.53	–
17020 kPa, x2 = 0.4326	741.63	–
17020 kPa, x2 = 0.8711	778.66	–
18000 kPa, x2 = 0.1391	731.21	–
18010 kPa, x2 = 0.3001	737.27	–
18010 kPa, x2 = 0.4326	742.38	–
18010 kPa, x2 = 0.6863	759.2	–
18010 kPa, x2 = 0.8711	779.44	–
18020 kPa, x2 = 0.1907	732.92	–
19000 kPa, x2 = 0.1391	731.93	–
19000 kPa, x2 = 0.1907	733.63	–
19000 kPa, x2 = 0.3001	738.01	–
19000 kPa, x2 = 0.6863	759.95	–
19020 kPa, x2 = 0.4326	743.13	–
19020 kPa, x2 = 0.8711	780.17	–
20000 kPa, x2 = 0.3001	738.71	–
20000 kPa, x2 = 0.4326	743.85	–
20010 kPa, x2 = 0.6863	760.69	–
20020 kPa, x2 = 0.1391	732.61	–
20020 kPa, x2 = 0.1907	734.34	–
20020 kPa, x2 = 0.8711	780.91	–
